These results are taken from US8648076B2, “Cysteine protease inhibitors and their therapeutic applications” (Hybrigenics SA, priority 2005, dated 2014).

The subject of experiment [1] is PC-3 prostate cancer cells. In words: PC3 cell viability and proliferation assay (MTS). As to conditions: PC3 cells, 72 hours incubation, MTS, mean of 3 independent experiments, read-out: PC3 D3 GI50. It is filed as cell-based.
Experiment [2] concerns HCT116 colon cancer cells. The experiment is described as follows: HCT116 cell viability and proliferation assay (MTS). Format: cell-based. As to conditions: HCT116 cells, 72 hours incubation, MTS, mean of 3 independent experiments, read-out: HCT116 D3 GI50.
For experiment [3], the target named is T1, USP8 (Homo sapiens, UniProt P40818).
T1 sequence (P40818 1-1118): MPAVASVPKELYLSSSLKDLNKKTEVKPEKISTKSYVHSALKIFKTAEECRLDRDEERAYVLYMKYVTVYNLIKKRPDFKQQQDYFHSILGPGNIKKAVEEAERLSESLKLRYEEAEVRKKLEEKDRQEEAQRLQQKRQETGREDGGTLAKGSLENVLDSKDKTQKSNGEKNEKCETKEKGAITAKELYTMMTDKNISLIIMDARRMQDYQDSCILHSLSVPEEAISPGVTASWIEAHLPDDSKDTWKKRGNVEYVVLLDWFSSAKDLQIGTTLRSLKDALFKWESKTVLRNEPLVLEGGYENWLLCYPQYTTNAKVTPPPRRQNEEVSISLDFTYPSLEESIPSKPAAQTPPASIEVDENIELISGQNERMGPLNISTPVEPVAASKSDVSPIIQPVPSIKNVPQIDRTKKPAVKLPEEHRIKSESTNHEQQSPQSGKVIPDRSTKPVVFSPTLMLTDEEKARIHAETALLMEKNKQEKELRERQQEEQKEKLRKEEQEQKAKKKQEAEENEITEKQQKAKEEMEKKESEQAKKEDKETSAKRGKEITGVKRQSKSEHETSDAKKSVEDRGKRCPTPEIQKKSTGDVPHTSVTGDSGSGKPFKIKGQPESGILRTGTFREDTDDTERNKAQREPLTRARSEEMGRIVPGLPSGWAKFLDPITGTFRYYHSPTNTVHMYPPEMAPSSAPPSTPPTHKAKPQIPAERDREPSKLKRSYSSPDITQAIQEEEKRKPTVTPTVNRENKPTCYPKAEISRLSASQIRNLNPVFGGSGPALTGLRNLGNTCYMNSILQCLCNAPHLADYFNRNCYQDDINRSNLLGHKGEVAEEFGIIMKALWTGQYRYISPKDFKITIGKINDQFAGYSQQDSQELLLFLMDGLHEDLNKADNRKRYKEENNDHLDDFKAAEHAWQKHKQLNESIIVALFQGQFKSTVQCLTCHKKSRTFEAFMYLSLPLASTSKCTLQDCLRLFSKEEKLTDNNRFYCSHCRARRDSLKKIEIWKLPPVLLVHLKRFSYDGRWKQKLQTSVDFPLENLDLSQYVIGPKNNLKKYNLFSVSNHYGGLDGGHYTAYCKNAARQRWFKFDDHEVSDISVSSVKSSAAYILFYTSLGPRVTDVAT
In words: USP8 activity assay. Format: biochemical. As to conditions: 400 nM Ub-AMC, pH8.8, 30 min pre-incubation at 25° C., 60 min at 37° C.; sigmoidal fit; AF: Autofluorescent; read-out: USP 8 (inhibition of cysteine protease activity).

Experiment [4] concerns the target T2, Uch-L3 (Homo sapiens, UniProt P15374).
T2 sequence (P15374 1-230): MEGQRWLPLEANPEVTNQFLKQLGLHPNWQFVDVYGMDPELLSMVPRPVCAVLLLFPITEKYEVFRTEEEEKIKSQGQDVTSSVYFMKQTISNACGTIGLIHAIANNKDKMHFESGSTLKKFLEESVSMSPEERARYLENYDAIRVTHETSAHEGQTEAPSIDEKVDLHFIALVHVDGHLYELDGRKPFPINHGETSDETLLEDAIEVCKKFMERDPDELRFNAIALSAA
In words: UCH-L3 activity assay. As to conditions: 400 nM Ub-AMC, 13 pM enzyme, 30 min pre-incubation at 25° C., 60 min at 37° C.; sigmoidal fit; AF: Autofluorescent; read-out: Uch-L3 (inhibition of cysteine protease activity). Format: biochemical. How it is done:
Bovine Serum Albumin 0.05 mg·ml^−1 pH7.6). Compounds stocks (100 mM) were stored at −20° C. in DMSO. […] Reactions were performed as duplicates in Black LJL 96 well plates (HE microplates; Molecular Devices; 20 μl final reaction volume). The substrate concentration for Uch-L3 was 400 nM Ub-AMC (Boston Biochem). The concentration of the enzyme (Uch-L3) in specificity assays was 13 pM. The concentrations were determined in order to perform specificity assays under initial velocities at fixed substrate concentration. Compounds were pre-incubated with enzymes for 30 minutes at 25° C. Reactions were initiated by addition of substrate to the plates containing the enzymes (+/−compounds) diluted in assay buffer. Reactions were incubated for 60 minutes at 37° C. Reactions were stopped by adding acetic acid (100 mM final). Readings were performed on a Pherastar Fluorescent Reader (BMG). δ Emission 380 nm; δ Excitation=460 nm. Data (mean values+/− standard deviation) were analyzed as % of control (no compound) and plotted as percentage versus the Log of the compound concentration using GraphPad (Prism). Data were fitted to a sigmoidal model (variable slope).

The target in experiment [5] is T3, USP7 (Homo sapiens, UniProt Q93009).
T3 construct: His tag (from pFastBac-HT vector) (N); made in house; host or cells: insect cells (Sf9 or High Five), baculovirus
In words: USP7 activity assay. Format: biochemical. As to conditions: 400 nM Ub-AMC, 152 pM enzyme, 30 min pre-incubation at 25° C., 60 min at 37° C.; sigmoidal fit; read-out: USP 7 (inhibition of cysteine protease activity).

Read-outs that look alike come from different tables or passages of the source.

T3 sequence (Q93009 whole entry): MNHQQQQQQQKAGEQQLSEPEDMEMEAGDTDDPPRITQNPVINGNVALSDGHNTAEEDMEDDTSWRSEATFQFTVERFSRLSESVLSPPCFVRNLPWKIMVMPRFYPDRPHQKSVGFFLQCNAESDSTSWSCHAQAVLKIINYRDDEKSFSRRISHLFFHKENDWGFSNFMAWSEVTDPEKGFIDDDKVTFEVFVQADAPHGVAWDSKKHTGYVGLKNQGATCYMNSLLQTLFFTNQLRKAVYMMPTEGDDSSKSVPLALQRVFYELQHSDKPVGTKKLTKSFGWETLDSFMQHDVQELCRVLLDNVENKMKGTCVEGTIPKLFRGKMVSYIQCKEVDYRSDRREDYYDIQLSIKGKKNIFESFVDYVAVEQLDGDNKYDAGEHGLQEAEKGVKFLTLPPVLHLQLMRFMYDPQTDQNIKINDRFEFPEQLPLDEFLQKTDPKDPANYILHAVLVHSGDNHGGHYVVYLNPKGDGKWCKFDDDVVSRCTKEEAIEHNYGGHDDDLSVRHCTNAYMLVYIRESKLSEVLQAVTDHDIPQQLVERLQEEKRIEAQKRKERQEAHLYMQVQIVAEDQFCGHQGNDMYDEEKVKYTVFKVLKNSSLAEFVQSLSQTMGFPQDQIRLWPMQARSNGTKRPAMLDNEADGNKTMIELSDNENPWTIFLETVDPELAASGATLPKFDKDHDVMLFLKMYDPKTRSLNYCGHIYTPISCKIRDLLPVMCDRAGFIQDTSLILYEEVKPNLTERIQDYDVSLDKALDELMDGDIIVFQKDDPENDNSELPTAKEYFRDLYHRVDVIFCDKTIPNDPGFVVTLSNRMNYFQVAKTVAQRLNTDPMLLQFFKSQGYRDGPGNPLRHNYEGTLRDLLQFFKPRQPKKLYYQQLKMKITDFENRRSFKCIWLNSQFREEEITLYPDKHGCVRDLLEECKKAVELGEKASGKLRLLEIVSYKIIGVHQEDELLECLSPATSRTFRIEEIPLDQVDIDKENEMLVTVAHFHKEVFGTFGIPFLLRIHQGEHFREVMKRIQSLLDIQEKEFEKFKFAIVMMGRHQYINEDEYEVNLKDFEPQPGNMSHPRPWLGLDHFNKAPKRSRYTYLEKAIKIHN

What is called GI50 is the concentration that inhibits growth by half. `COc1nc2c(nc1C#N)C(O)c1ccccc1-2` (stereo not shown) [Example 2, 9-hydroxy-3-methoxy-9H-indeno[1,2-b]pyrazine-2-carbonitrile]: the GI50 in experiment [1] (Homo sapiens, PC-3, 72 h) is more than 10000 nM; in experiment [2] (Homo sapiens, HCT-116), more than 10000 nM.

On to `CON=C1c2cc(Cl)ccc2-c2nc(C#N)c(C#N)nc21` [Example 24a, 7-Chloro-9-methoxyimino-9H-indeno[1,2-b]pyrazine-2,3-dicarbonitrile], for which the GI50 in experiment [1] (Homo sapiens, PC-3) came out at 390 nM; in experiment [2] (Homo sapiens, HCT-116), 500 nM.

On to `C=CCON=C1c2cc(Cl)ccc2-c2nc(C#N)c(C#N)nc21` [Example 24b, 9-Allyloxyimino-7-chloro-9H-indeno[1,2-b]pyrazine-2,3-dicarbonitrile], for which the GI50 turned out to be 620 nM in experiment [1] (Homo sapiens, PC-3) and 940 nM in experiment [2] (Homo sapiens, HCT-116).

For the molecule `N#Cc1nc2c(nc1C#N)-c1cc(Cl)ccc1C2=O` [Example 25, 6-Chloro-9-oxo-9H-indeno[1,2-b]pyrazine-2,3-dicarbonitrile], the GI50 in experiment [1] (Homo sapiens, PC-3) was found to be 1400 nM; in experiment [2] (Homo sapiens, HCT-116), 190 nM.

Take `N#Cc1nc2c(nc1C(N)=O)-c1ccccc1/C2=N\O` [Example 33, 2-cyano-9-[hydroxyimino]-9H-indeno[1,2-b]pyrazine-3-carboxylic acid amide]: the IC50 in experiment [3] came out at 733 nM; in experiment [4], 596 nM; in experiment [5], 13000 nM. Moreover, the GI50 stood at 1200 nM in experiment [1] and 1600 nM in experiment [2].
